Patent US10907168B2, “Jasmonic acid pathway activator” (MEDICAGO INC., priority 2015, dated 2021)

Experiments:
Format in all cases: in vivo, Nicotiana benthamiana
[1] = system: RuBisCO large and small subunit; experiment: RuBisCO large and small subunit levels, immunodetection and densitometry; conditions: for depletion of RuBisCO large and small subunit pools, less than in controls: uninfiltrated leaves, seven days post-treatment
Method: FIGS. 1a-1d show total soluble proteins (TSP), 1-D proteome profile and RuBisCO subunit levels in agroinfiltrated and control N. benthamiana leaves treated with the stress elicitor MeJA 24 h before infection. […] FIGS. 1c and 1d show relative amounts of RuBisCO large (RbcL; FIG. 1c) and small (RbsS; FIG. 1d) subunits in MeJA-treated leaves as determined by densitometry following immunodetection with appropriate antibodies. Protein signals on the immunoblots were quantified using the Phoretix 2-D Expression software v. 2005 (NonLinear USA, Durham N.C., U.S.A.) after scanning nitrocellulose membranes with a Microtek ScanMaker II digitalizer (Microtek Laboratory, Torrance Calif., U.S.A.). Data are expressed as relative levels compared to non-treated controls assigned an arbitrary level of 1.0. Each bar on panels (a) and (c) is the mean of three independent (leaf replicate) values±SE. Infiltrated leaves were transfected with A. tumefaciens cells 24 h post-MeJA treatment. All plant samples were harvested seven days post-MeJA treatment (i.e. six days post-agroinfiltration for the transfected plants).
Forty-two day-old N. benthamiana plants grown in greenhouse were used for the experiments. Each plant was sprayed evenly with 50 ml of 0.5 mM, 1 mM or 2 mM MeJA in water containing 0.1% (v/v) Triton X-100 (Sigma-Aldrich, Mississauga ON, Canada), or with 50 ml of 1 mM arachidonic acid (Girard et al., 2007) in the same solvent, and transferred for seven days in a Conviron growth chamber (Conviron, Winnipeg MB, Canada). Plants sprayed with 50 ml of 0.1% (v/v) Triton X-100 in water were used in parallel as negative controls to avoid confounding effects due to experimental conditions. Two or three 1-cm^2 leaf discs were harvested from the third main stem leaf (see Robert et al., 2013) after seven days, as source material for protein and RNA extraction. The leaf samples were frozen immediately in liquid nitrogen and stored at −80° C. until protein or RNA extraction. Three to five biological (plant) replicates were used for each treatment, to allow for statistical treatment of the data. […]

[2] = system: cathepsin L-like C1A Cys proteases; experiment: Protease assay in leaf crude extracts, Z-Phe-Arg-MCA substrate; conditions: three tested doses (0.5, 1, 2 mM), seven days post-treatment, ANOVA P>0.05
Method: (§1) Forty-two day-old N. benthamiana plants grown in greenhouse were used for the experiments. Each plant was sprayed evenly with 50 ml of 0.5 mM, 1 mM or 2 mM MeJA in water containing 0.1% (v/v) Triton X-100 (Sigma-Aldrich, Mississauga ON, Canada), or with 50 ml of 1 mM arachidonic acid (Girard et al., 2007) in the same solvent, and transferred for seven days in a Conviron growth chamber (Conviron, Winnipeg MB, Canada). Plants sprayed with 50 ml of 0.1% (v/v) Triton X-100 in water were used in parallel as negative controls to avoid confounding effects due to experimental conditions. […]
(§2) Whole leaf proteins were extracted from three 1-cm^2 leaf discs in 400 μl of ice-cold 50 mM Tris-HCl, pH 7.5, containing 150 mM NaCl, by disrupting the leaf samples with tungsten carbide beads (Qiagen, Mississauga ON, Canada) in a Mini-Beadbeater apparatus (BioSpec, Bartlesville Okla., USA). […] RuBisCO small subunit was detected using polyclonal IgG raised in rabbit against a synthetic small subunit peptide (Agrisera, Vännäs, Sweden) and alkaline phosphatase-conjugated goat anti-rabbit IgG as secondary antibodies (Sigma-Aldrich). RuBisCO large subunit was detected using polyclonal IgG raised in hen against a synthetic large subunit peptide (Agrisera) and alkaline phosphatase-conjugated goat anti-chicken IgG as secondary antibodies (Sigma-Aldrich). […]

[3] = system: trypsin-like S1 Ser proteases; experiment: Protease assay in leaf crude extracts, Z-Arg-MCA substrate; conditions: 0.5 and 1 mM doses, seven days post-treatment
Method: as §1, §2

[4] = system: C5-1 light and heavy chain mRNA; experiment: Real-time RT PCR of C5-1 light and heavy chain transcripts; conditions: 1 mM spray, 24 h before infiltration

SMILES: CC/C=C\C[C@H]1C(=O)CC[C@@H]1CC(=O)OC [MeJA, methyl jasmonate]
- depletion of RuBisCO large and small subunit pools, less than in controls ([1]; 0.5 mM dose): ~40%
- depletion of RuBisCO large and small subunit pools, less than in controls ([1]; 2 mM dose): more than 90%
- RuBisCO large and small subunits, share of original content relative to untreated plants ([1]; agroinfiltrated leaves (empty vector, 24 h post-treatment), 1 or 2 mM, six days post-infection): less than 50%
- cathepsin L-like activity [2]: no impact
- trypsin-like activity [3]: minimal or no increase in activity
- mRNA transcript numbers for C5-1 light and heavy chains compared with control leaf extracts [4]: about twofold
